Measured values from patent publication US12304932B2, “PACAP stabilized peptide” (SENJU PHARMACEUTICAL CO., LTD., priority 2017, dated 2025).
Square brackets hold non-standard residues; d marks the D form. Peptide text beside a SMILES is read from it. * marks the point of attachment. Ala(1H-tetrazol-5-yl) = N[C@@H](Cc1nnn[nH]1)C(=O)O; Ms = CS(=O)(=O)*

Assay: Peptide stability tests 2 and 3: Tris buffer pH 7.0, stored at 60° C., HPLC conditions 2
Type: physicochemical
Settings: 100 μM peptide, Tris buffer pH 7.0, 60° C.
Summary of the method: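 Survival rate, corrected for water, was quantified by reversed-phase C18 HPLC (220 nm; formic acid water/acetonitrile gradient; 40° C. column) against an initial unstored standard. Samples were 100 μM peptide in pH 7.0 Tris stored 1–2 weeks at 60° C.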

| SMILES | survival rate after correction for water, 60° C., 1-week storage (1 week) [%] | survival rate after correction for water, 60° C., 2-week storage (2 weeks) [%] | survival rate after correction for water, 60° C., 2-week storage (Table 7-2) (2 weeks) [%] |
| --- | --- | --- | --- |
| CC[C@H](C)[C@H](NC(=O)CNC(=O)[C@H](Cc1nnn[nH]1)NC(=O)[C@H](CO)NC(=O)[C@H](Cc1c[nH]cn1)NC(C)=O)C(=O)N[C@@H](Cc1ccccc1)C(=O)N[C@H](C(=O)N[C@@H](Cc1nnn[nH]1)C(=O)N[C@@H](CO)C(=O)N[C@@H](Cc1ccc(O)cc1)C(=O)N[C@@H](CO)C(=O)N[C@@H](CCCNC(=N)N)C(=O)N[C@@H](Cc1ccc(O)cc1)C(=O)N[C@@H](CCCNC(=N)N)C(=O)N[C@@H](CCCCN)C(=O)N[C@@H](C)C(=O)N[C@@H](C)C(=O)N[C@@H](C)C(=O)N[C@H](C(=O)N[C@@H](CCCCN)C(=O)N[C@@H](CCCCN)C(=O)N[C@@H](Cc1ccc(O)cc1)C(=O)N[C@@H](CC(C)C)C(=O)N[C@@H](C)C(=O)N[C@@H](C)C(=O)N[C@H](C(=O)N[C@@H](CC(C)C)C(N)=O)C(C)C)C(C)C)[C@@H](C)O [Peptide 28] (Ac-HS[Ala(1H-tetrazol-5-yl)]GIFT[Ala(1H-tetrazol-5-yl)]SYSRYRKAAAVKKYLAAVL-NH2) | 94.6 | 90.5 |  |
| CC[C@H](C)[C@H](NC(=O)CNC(=O)[C@H](Cc1nnn[nH]1)NC(=O)[C@H](CO)NC(=O)[C@H](Cc1c[nH]cn1)NS(C)(=O)=O)C(=O)N[C@@H](Cc1ccccc1)C(=O)N[C@H](C(=O)N[C@@H](Cc1nnn[nH]1)C(=O)N[C@@H](C)C(=O)N[C@@H](Cc1ccc(O)cc1)C(=O)N[C@@H](CO)C(=O)N[C@@H](CCCNC(=N)N)C(=O)N[C@@H](Cc1ccc(O)cc1)C(=O)N[C@@H](CCCNC(=N)N)C(=O)N[C@@H](CCCCN)C(=O)N[C@@H](CCC(N)=O)C(=O)N[C@@H](CC(C)C)C(=O)N[C@@H](C)C(=O)N[C@H](C(=O)N[C@@H](CCCCN)C(=O)N[C@@H](CCCCN)C(=O)N[C@@H](Cc1ccc(O)cc1)C(=O)N[C@@H](CC(C)C)C(=O)N[C@@H](C)C(=O)N[C@@H](C)C(=O)N[C@H](C(=O)N[C@@H](CC(C)C)C(N)=O)C(C)C)C(C)C)[C@@H](C)O [Peptide 29] (Ms-HS[Ala(1H-tetrazol-5-yl)]GIFT[Ala(1H-tetrazol-5-yl)]AYSRYRKQLAVKKYLAAVL-NH2) |  |  | 91.9 |
| CC[C@H](C)[C@H](NC(=O)[C@H](C)NC(=O)[C@H](Cc1nnn[nH]1)NC(=O)[C@H](CO)NC(=O)[C@H](Cc1c[nH]cn1)NS(C)(=O)=O)C(=O)N[C@@H](Cc1ccccc1)C(=O)N[C@H](C(=O)N[C@@H](Cc1nnn[nH]1)C(=O)N[C@@H](CO)C(=O)N[C@@H](Cc1ccc(O)cc1)C(=O)N[C@@H](CO)C(=O)N[C@@H](CCCNC(=N)N)C(=O)N[C@@H](Cc1ccc(O)cc1)C(=O)N[C@@H](CCCNC(=N)N)C(=O)N[C@@H](CCCCN)C(=O)N[C@@H](CCC(N)=O)C(=O)N[C@@H](CC(C)C)C(=O)N[C@@H](C)C(=O)N[C@H](C(=O)N[C@@H](CCCCN)C(=O)N[C@@H](CCCCN)C(=O)N[C@@H](Cc1ccc(O)cc1)C(=O)N[C@@H](CC(C)C)C(=O)N[C@@H](C)C(=O)N[C@@H](C)C(=O)N[C@H](C(=O)N[C@@H](CC(C)C)C(N)=O)C(C)C)C(C)C)[C@@H](C)O [Peptide 30] (Ms-HS[Ala(1H-tetrazol-5-yl)]AIFT[Ala(1H-tetrazol-5-yl)]SYSRYRKQLAVKKYLAAVL-NH2) |  |  | 92.2 |
| CC[C@H](C)[C@H](NC(=O)[C@H](C)NC(=O)[C@H](Cc1nnn[nH]1)NC(=O)[C@H](CO)NC(=O)[C@H](Cc1c[nH]cn1)NS(C)(=O)=O)C(=O)N[C@@H](Cc1ccccc1)C(=O)N[C@H](C(=O)N[C@@H](Cc1nnn[nH]1)C(=O)N[C@@H](CO)C(=O)N[C@@H](Cc1ccc(O)cc1)C(=O)N[C@@H](CO)C(=O)N[C@@H](CCCNC(=N)N)C(=O)N[C@@H](Cc1ccc(O)cc1)C(=O)N[C@@H](CCCNC(=N)N)C(=O)N[C@@H](CCCCN)C(=O)N[C@@H](CCC(N)=O)C(=O)N[C@@H](C)C(=O)N[C@@H](C)C(=O)N[C@H](C(=O)N[C@@H](CCCCN)C(=O)N[C@@H](CCCCN)C(=O)N[C@@H](Cc1ccc(O)cc1)C(=O)N[C@@H](CC(C)C)C(=O)N[C@@H](C)C(=O)N[C@@H](C)C(=O)N[C@H](C(=O)N[C@@H](CC(C)C)C(N)=O)C(C)C)C(C)C)[C@@H](C)O [Peptide 31] (Ms-HS[Ala(1H-tetrazol-5-yl)]AIFT[Ala(1H-tetrazol-5-yl)]SYSRYRKQAAVKKYLAAVL-NH2) |  |  | 90.1 |
| CC[C@H](C)[C@H](NC(=O)[C@H](C)NC(=O)[C@H](Cc1nnn[nH]1)NC(=O)[C@H](CO)NC(=O)[C@H](Cc1c[nH]cn1)NC(C)=O)C(=O)N[C@@H](Cc1ccccc1)C(=O)N[C@H](C(=O)N[C@@H](Cc1nnn[nH]1)C(=O)N[C@@H](CO)C(=O)N[C@@H](Cc1ccc(O)cc1)C(=O)N[C@@H](CO)C(=O)N[C@@H](CCCNC(=N)N)C(=O)N[C@@H](Cc1ccc(O)cc1)C(=O)N[C@@H](CCCNC(=N)N)C(=O)N[C@@H](CCCCN)C(=O)N[C@@H](CCC(N)=O)C(=O)N[C@@H](C)C(=O)N[C@@H](C)C(=O)N[C@H](C(=O)N[C@@H](CCCCN)C(=O)N[C@@H](CCCCN)C(=O)N[C@@H](Cc1ccc(O)cc1)C(=O)N[C@@H](CC(C)C)C(=O)N[C@@H](C)C(=O)N[C@@H](C)C(=O)N[C@H](C(=O)N[C@@H](CC(C)C)C(N)=O)C(C)C)C(C)C)[C@@H](C)O [Peptide 32] (Ac-HS[Ala(1H-tetrazol-5-yl)]AIFT[Ala(1H-tetrazol-5-yl)]SYSRYRKQAAVKKYLAAVL-NH2) |  |  | 88.7 |
| CC[C@H](C)[C@H](NC(=O)[C@H](C)NC(=O)[C@H](Cc1nnn[nH]1)NC(=O)[C@H](C)NC(=O)[C@H](Cc1c[nH]cn1)NC(C)=O)C(=O)N[C@@H](Cc1ccccc1)C(=O)N[C@H](C(=O)N[C@@H](Cc1nnn[nH]1)C(=O)N[C@@H](CO)C(=O)N[C@@H](Cc1ccc(O)cc1)C(=O)N[C@@H](CO)C(=O)N[C@@H](CCCNC(=N)N)C(=O)N[C@@H](Cc1ccc(O)cc1)C(=O)N[C@@H](CCCNC(=N)N)C(=O)N[C@@H](CCCCN)C(=O)N[C@@H](CCC(N)=O)C(=O)N[C@@H](C)C(=O)N[C@@H](C)C(=O)N[C@H](C(=O)N[C@@H](CCCCN)C(=O)N[C@@H](CCCCN)C(=O)N[C@@H](Cc1ccc(O)cc1)C(=O)N[C@@H](CC(C)C)C(=O)N[C@@H](C)C(=O)N[C@@H](C)C(=O)N[C@H](C(=O)N[C@@H](CC(C)C)C(N)=O)C(C)C)C(C)C)[C@@H](C)O [Peptide 33] (Ac-HA[Ala(1H-tetrazol-5-yl)]AIFT[Ala(1H-tetrazol-5-yl)]SYSRYRKQAAVKKYLAAVL-NH2) |  |  | 85.3 |
| CC[C@H](C)[C@H](NC(=O)[C@H](C)NC(=O)[C@H](Cc1nnn[nH]1)NC(=O)[C@H](CO)NC(=O)[C@H](Cc1c[nH]cn1)NC(C)=O)C(=O)N[C@@H](Cc1ccccc1)C(=O)N[C@H](C(=O)N[C@@H](Cc1nnn[nH]1)C(=O)N[C@@H](CO)C(=O)N[C@@H](Cc1ccc(O)cc1)C(=O)N[C@@H](CO)C(=O)N[C@@H](CCCNC(=N)N)C(=O)N[C@@H](Cc1ccc(O)cc1)C(=O)N[C@@H](CCCNC(=N)N)C(=O)N[C@@H](CCCCN)C(=O)N[C@@H](C)C(=O)N[C@@H](C)C(=O)N[C@@H](C)C(=O)N[C@H](C(=O)N[C@@H](CCCCN)C(=O)N[C@@H](CCCCN)C(=O)N[C@@H](Cc1ccc(O)cc1)C(=O)N[C@@H](CC(C)C)C(=O)N[C@@H](C)C(=O)N[C@@H](C)C(=O)N[C@H](C(=O)N[C@@H](CC(C)C)C(N)=O)C(C)C)C(C)C)[C@@H](C)O [Peptide 34] (Ac-HS[Ala(1H-tetrazol-5-yl)]AIFT[Ala(1H-tetrazol-5-yl)]SYSRYRKAAAVKKYLAAVL-NH2) |  |  | 96.9 |
